One assay deals with T1, human TLR7 (Homo sapiens, UniProt Q9NYK1).
T1 construct: host or cells: HEK-Blue cells
T1 sequence (Q9NYK1 27-1049): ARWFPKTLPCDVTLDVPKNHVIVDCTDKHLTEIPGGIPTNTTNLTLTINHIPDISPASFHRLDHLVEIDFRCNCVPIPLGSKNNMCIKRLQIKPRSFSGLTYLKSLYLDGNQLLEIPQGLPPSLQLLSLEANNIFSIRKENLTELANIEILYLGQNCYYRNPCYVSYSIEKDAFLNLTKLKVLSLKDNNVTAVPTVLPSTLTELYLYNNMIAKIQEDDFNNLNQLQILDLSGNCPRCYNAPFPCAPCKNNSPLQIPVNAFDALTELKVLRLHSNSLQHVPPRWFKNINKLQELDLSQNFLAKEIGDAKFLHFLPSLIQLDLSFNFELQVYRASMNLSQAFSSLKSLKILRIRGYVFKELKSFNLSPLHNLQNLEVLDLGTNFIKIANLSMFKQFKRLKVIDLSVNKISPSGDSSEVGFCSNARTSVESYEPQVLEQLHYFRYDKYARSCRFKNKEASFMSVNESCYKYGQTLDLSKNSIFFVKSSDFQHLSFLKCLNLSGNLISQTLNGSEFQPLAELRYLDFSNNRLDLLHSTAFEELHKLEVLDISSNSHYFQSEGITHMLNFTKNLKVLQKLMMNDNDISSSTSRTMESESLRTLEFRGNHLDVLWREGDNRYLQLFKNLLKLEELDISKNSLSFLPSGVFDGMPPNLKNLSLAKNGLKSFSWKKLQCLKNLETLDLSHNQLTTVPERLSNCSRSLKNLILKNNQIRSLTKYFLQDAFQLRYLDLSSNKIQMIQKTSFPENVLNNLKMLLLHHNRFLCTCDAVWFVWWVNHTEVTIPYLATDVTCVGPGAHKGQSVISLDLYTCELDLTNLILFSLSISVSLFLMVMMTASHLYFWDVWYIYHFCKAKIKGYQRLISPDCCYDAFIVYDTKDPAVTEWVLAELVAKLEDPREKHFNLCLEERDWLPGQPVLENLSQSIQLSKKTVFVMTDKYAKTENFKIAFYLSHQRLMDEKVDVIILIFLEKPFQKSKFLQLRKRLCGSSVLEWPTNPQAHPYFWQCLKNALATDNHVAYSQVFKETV
As to the kind of experiment: TLR7 inhibition reporter assay (HEK-Blue cells, SEAP reporter, gardiquimod stimulation). Type of assay: cell-based. The conditions noted are these: HEK-Blue cells overexpressing human TLR7, gardiquimod 7.5 μM. As to the method:
(§1) TLR7/8/9 Inhibition Reporter Assays
Briefly, cells are seeded into Greiner 384 well plates (15000 cells per well for TLR7, 20,000 for TLR8 and 25,000 for TLR9) and then treated with test compounds in DMSO to yield a final dose response concentration range of 0.05 nM-50 μM. […] After a 22 hour incubation at 37° C., 5% CO2, SEAP levels are determined with the addition of HEK-Blue™ Detection reagent (Invivogen), a cell culture medium that allows for detection of SEAP, according to manufacturer's specifications. The percent inhibition is determined as the % reduction in the HEK-Blue signal present in wells treated with agonist plus DMSO alone compared to wells treated with a known inhibitor.

The target of another assay is T2, human TLR9 (Homo sapiens, UniProt Q9NR96).
T2 construct: host or cells: HEK-Blue cells
T2 sequence (Q9NR96 26-1032): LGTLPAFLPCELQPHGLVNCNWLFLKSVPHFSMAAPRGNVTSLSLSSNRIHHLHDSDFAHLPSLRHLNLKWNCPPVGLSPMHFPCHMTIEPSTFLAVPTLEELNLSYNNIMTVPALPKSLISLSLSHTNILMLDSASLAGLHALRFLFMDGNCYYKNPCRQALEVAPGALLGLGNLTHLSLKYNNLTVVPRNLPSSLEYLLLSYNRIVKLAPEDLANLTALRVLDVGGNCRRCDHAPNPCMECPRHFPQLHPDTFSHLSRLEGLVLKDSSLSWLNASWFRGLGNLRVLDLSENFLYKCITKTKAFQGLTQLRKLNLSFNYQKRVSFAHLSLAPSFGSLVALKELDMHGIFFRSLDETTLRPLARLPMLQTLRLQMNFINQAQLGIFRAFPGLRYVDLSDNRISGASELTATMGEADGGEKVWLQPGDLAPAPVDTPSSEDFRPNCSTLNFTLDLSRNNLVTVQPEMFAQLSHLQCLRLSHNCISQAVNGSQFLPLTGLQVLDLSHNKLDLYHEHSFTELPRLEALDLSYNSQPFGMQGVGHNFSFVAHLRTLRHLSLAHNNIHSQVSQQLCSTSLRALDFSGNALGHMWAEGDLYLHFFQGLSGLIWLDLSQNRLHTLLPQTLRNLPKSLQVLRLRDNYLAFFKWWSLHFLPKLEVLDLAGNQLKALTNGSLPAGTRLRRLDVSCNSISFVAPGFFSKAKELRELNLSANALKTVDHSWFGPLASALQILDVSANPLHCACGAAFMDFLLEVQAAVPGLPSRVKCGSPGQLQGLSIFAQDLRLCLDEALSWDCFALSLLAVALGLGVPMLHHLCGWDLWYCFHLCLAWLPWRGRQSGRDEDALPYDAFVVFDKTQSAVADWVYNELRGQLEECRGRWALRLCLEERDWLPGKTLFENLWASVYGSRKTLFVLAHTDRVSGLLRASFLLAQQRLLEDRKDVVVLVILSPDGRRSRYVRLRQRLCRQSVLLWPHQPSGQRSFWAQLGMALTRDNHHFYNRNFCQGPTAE
As to the kind of experiment: TLR9 inhibition reporter assay (HEK-Blue cells, SEAP reporter, ODN2006 stimulation). Type of assay: cell-based. The note with it: HEK-Blue cells overexpressing human TLR9, ODN2006 5 nM. On the procedure: as §1
HEK-Blue™-cells (Invivogen) overexpressing human TLR7, TLR8 or TLR9 receptors were used for screening inhibitors of these receptors using an inducible SEAP (secreted embryonic alkaline phosphatase) reporter gene under the control of the IFN-β minimal promoter fused to five NF-κB and AP-1-binding sites. Briefly, cells are seeded into Greiner 384 well plates (15000 cells per well for TLR7, 20,000 for TLR8 and 25,000 for TLR9) and then treated with test compounds in DMSO to yield a final dose response concentration range of 0.05 nM-50 μM. After a 30 minute compound pre-treatment at room temperature, the cells are then stimulated with a TLR7 ligand (gardiquimod at a final concentration of 7.5 μM), TLR8 ligand (R848 at a final concentration of 15.9 μM) or TLR9 ligand (ODN2006 at a final concentration of 5 nM) to activate NF-κB and AP-1 which induce the production of SEAP. After a 22 hour incubation at 37° C., 5% CO2, SEAP levels are determined with the addition of HEK-Blue™ Detection reagent (Invivogen), a cell culture medium that allows for detection of SEAP, according to manufacturer's specifications. The percent inhibition is determined as the % reduction in the HEK-Blue signal present in wells treated with agonist plus DMSO alone compared to wells treated with a known inhibitor.
For orientation: A reporter such as luciferase makes a cellular process visible.

SMILES strings stand for the structures.

By IC50 is commonly meant the concentration that gives 50% inhibition. Read a high IC50 as weaker potency in that assay. For the molecule `COc1ccc(-c2[nH]c3ccc(C4CCN(Cc5ccccn5)CC4)cc3c2C)cc1OC` [Example 28, 2-(3,4-dimethoxyphenyl)-3-methyl-5-(1-(pyridin-2-ylmethyl)piperidin-4-yl)-1H-indole], the IC50 at human TLR7 was found to be 638 nM; against human TLR9, 1010 nM.

Take `COc1ccc(-c2[nH]c3ccc(C4CCN(Cc5cccn5C)CC4)cc3c2C)cc1OC` [Example 29, 2-(3,4-dimethoxyphenyl)-3-methyl-5-(1-((1-methyl-1H-pyrrol-2-yl)methyl)piperidin-4-yl)-1H-indole]: the IC50 against human TLR7 came out at 1630 nM; against human TLR9, 787 nM.

Turning to `COc1ccc(-c2[nH]c3ccc(C4CCN(C(C)CN(C)C)CC4)cc3c2C)cc1OC` (stereo not shown) [Example 30, 2-(4-(2-(3,4-dimethoxyphenyl)-3-methyl-1H-indol-5-yl)piperidin-1-yl)-N,N-dimethylpropan-1-amine], the half-maximal inhibitory concentration (IC50) against human TLR7 is 666 nM; against human TLR9, 860 nM.

Take `COc1ccc(-c2[nH]c3ccc(C4CCN(Cc5ccc6cnccc6c5)CC4)cc3c2C)cc1OC` [Example 31, 6-((4-(2-(3,4-dimethoxyphenyl)-3-methyl-1H-indol-5-yl)piperidin-1-yl)methyl)isoquinoline]: the IC50 worked out at 347 nM at human TLR7 and 225 nM at human TLR9.

For `COc1ccc(-c2[nH]c3ccc(C4CCN(Cc5ccnc6ccccc56)CC4)cc3c2C)cc1OC` [Example 32, 4-((4-(2-(3,4-dimethoxyphenyl)-3-methyl-1H-indol-5-yl)piperidin-1-yl)methyl)quinoline], the IC50 against human TLR7 worked out at 2480 nM; against human TLR9, 3590 nM.

As to `COc1ccc(-c2[nH]c3ccc(C4CCN(Cc5cc6ccccc6n5C)CC4)cc3c2C)cc1OC` [Example 33, 2-(3,4-dimethoxyphenyl)-3-methyl-5-(1-((1-methyl-1H-indol-2-yl)methyl)piperidin-4-yl)-1H-indole], the half-inhibitory concentration (IC50) on human TLR7 was at least 50000 nM; against human TLR9 it was 3720 nM.

In the case of `COc1ccc(-c2[nH]c3ccc(C4CCN(Cc5ccc(-n6cncn6)cc5)CC4)cc3c2C)cc1OC` [Example 34, 5-(1-(4-(1H-1,2,4-triazol-1-yl)benzyl)piperidin-4-yl)-2-(3,4-dimethoxyphenyl)-3-methyl-1H-indole], the figures for the IC50 at human TLR7 and at human TLR9 were 673 nM and 347 nM, respectively.

In the case of `COc1ccc(-c2[nH]c3ccc(C4CCN(Cc5ccc6ccccc6n5)CC4)cc3c2C)cc1OC` [Example 35, 2-((4-(2-(3,4-dimethoxyphenyl)-3-methyl-1H-indol-5-yl)piperidin-1-yl)methyl)quinoline], the IC50 at human TLR7 was 2680 nM; against human TLR9, 1430 nM.

As for `COc1ccc(-c2[nH]c3ccc(C4CCN(Cc5cccc6cccnc56)CC4)cc3c2C)cc1OC` [Example 36, 8-((4-(2-(3,4-dimethoxyphenyl)-3-methyl-1H-indol-5-yl)piperidin-1-yl)methyl)quinoline], the IC50 against human TLR7 was found to be 1160 nM; on human TLR9, 348 nM.

For the molecule `COc1ccc(-c2[nH]c3ccc(C4CCN(Cc5ccc(N(C)C)cc5)CC4)cc3c2C)cc1OC` [Example 37, 4-((4-(2-(3,4-dimethoxyphenyl)-3-methyl-1H-indol-5-yl)piperidin-1-yl)methyl)-N,N-dimethylaniline], the half-inhibitory concentration (IC50) is 1050 nM against human TLR7 and 637 nM at human TLR9.

Take `COc1ccc(-c2[nH]c3ccc(C4CCN(Cc5ccc(OCCCN(C)C)cc5)CC4)cc3c2C)cc1OC` [Example 38, 3-(4-((4-(2-(3,4-dimethoxyphenyl)-3-methyl-1H-indol-5-yl)piperidin-1-yl)methyl)phenoxy)-N,N-dimethylpropan-1-amine]: the half-maximal inhibitory concentration (IC50) is 663 nM against human TLR7 and 210 nM at human TLR9.

On to `COc1ccc(-c2[nH]c3ccc(C4CCN(Cc5ccc(-n6ccnc6)cc5)CC4)cc3c2C)cc1OC` [Example 39, 5-(1-(4-(1H-imidazol-1-yl)benzyl)piperidin-4-yl)-2-(3,4-dimethoxyphenyl)-3-methyl-1H-indole], for which the values for the IC50 against human TLR7 and at human TLR9 were 1980 nM and 251 nM, respectively.

Turning to `COc1ccc(-c2[nH]c3ccc(C4CCN(Cc5cncn5C)CC4)cc3c2C)cc1OC` [Example 40, 2-(3,4-dimethoxyphenyl)-3-methyl-5-(1-((1-methyl-1H-imidazol-5-yl)methyl)piperidin-4-yl)-1H-indole], the half-maximal inhibitory concentration (IC50) is 512 nM at human TLR7 and 2010 nM on human TLR9.

For `COc1ccc(-c2[nH]c3ccc(C4CCN(Cc5csnn5)CC4)cc3c2C)cc1OC` [Example 41, 4-((4-(2-(3,4-dimethoxyphenyl)-3-methyl-1H-indol-5-yl)piperidin-1-yl)methyl)-1,2,3-thiadiazole], the IC50 against human TLR7 stood at 2340 nM; on human TLR9, 3840 nM.

On to `COc1ccc(-c2[nH]c3ccc(C4CCN(Cc5ccc(N6CCN(C)CC6)cc5)CC4)cc3c2C)cc1OC` [Example 42, 2-(3,4-dimethoxyphenyl)-3-methyl-5-(1-(4-(4-methylpiperazin-1-yl)benzyl)piperidin-4-yl)-1H-indole], for which the concentration for half-maximal inhibition (IC50) on human TLR7 turned out to be 687 nM; against human TLR9, 120 nM.

With `COc1ccc(-c2[nH]c3ccc(C4CCN(Cc5ccc(N6CCCC6)cc5)CC4)cc3c2C)cc1OC` [Example 46, 2-(3,4-dimethoxyphenyl)-3-methyl-5-(1-(4-(pyrrolidin-1-yl)benzyl)piperidin-4-yl)-1H-indole], the IC50 at human TLR7 was 3290 nM; on human TLR9 it was 746 nM.

`COc1ccc(-c2[nH]c3ccc(C4CCN(Cc5cccnc5)CC4)cc3c2C)cc1OC` [Example 47, 2-(3,4-dimethoxyphenyl)-3-methyl-5-(1-(pyridin-3-ylmethyl)piperidin-4-yl)-1H-indole]: the 50% inhibitory concentration (IC50) on human TLR7 was 589 nM; against human TLR9 it was 1080 nM.
